For 1 compound, IC50 results are on record in patent US8486964B2, “Fused pyrrolidino-cyclopropane derivatives as selective 11-beta-hydroxysteroid dehydrogenase type 1 inhibitors” (Merck Patent GmbH, priority 2009, dated 2013).

A word on the IC50: it is the concentration needed to halve the response being measured.

Assay type in all cases: biochemical
Assay [1] deals with rat 11-β-HSD-1 (Rattus norvegicus (Rat), UniProt P16232). Nature of the assay: Inhibition of 11-β-HSD-1 enzyme assay (HTRF cortisol), rat liver microsome fractions. As to conditions: cortisone/NADPH 200 nM/200 μM, 150 minutes at 37° C. The procedure:
(§1) Human recombinant 11-beta-hydroxysteroid dehydrogenase type 1 (11-β-HSD-1) enzyme was expressed in E. coli. Rat and mice liver microsome fractions were purchased from TEBU.
(§2) The 11-β-HSD-1 enzyme assay was carried out in 96 well microtiter plates in a total volume of 100 μl containing 30 mM Hepes buffer, pH 7.4 with 1 mM EDTA, substrate mixture cortisone/NADPH (200 nM/200 μM), G-6-P (1 mM) and inhibitors in serial dilutions. Reactions were initiated by addition of 10 μl 11-β-HSD-1 (3 μg) from E. coli, either as microsome fractions from rat and mice liver (2.5 μg). Following mixing, the plates were shaken for 150 minutes at 37° C. The reactions were terminated with 10 μl Acid-18beta glycyrrhetinic stop solution. Determinations of cortisol levels in 11-β-HSD-1 preparations were monitored by HTRF (HTRF cortisol assay from Cis bio international).

Assay [2] deals with human 11-β-HSD-1 (Homo sapiens (Human), UniProt P28845). Nature of the assay: Inhibition of 11-β-HSD-1 enzyme assay (HTRF cortisol), human recombinant enzyme. As to conditions: human recombinant enzyme expressed in E. coli; cortisone/NADPH 200 nM/200 μM; 150 minutes at 37° C. The method, then:
as §1, §2
(Time-resolved FRET reads energy transfer from a long-lived donor to a nearby acceptor.)

Assay [3] deals with mouse 11-β-HSD-1 (Mus musculus (Mouse), UniProt P50172). Nature of the assay: Inhibition of 11-β-HSD-1 enzyme assay (HTRF cortisol), mice liver microsome fractions. As to conditions: cortisone/NADPH 200 nM/200 μM, 150 minutes at 37° C. The procedure:
as §1, §2

Sequence of human 11-β-HSD-1 (P28845 whole entry): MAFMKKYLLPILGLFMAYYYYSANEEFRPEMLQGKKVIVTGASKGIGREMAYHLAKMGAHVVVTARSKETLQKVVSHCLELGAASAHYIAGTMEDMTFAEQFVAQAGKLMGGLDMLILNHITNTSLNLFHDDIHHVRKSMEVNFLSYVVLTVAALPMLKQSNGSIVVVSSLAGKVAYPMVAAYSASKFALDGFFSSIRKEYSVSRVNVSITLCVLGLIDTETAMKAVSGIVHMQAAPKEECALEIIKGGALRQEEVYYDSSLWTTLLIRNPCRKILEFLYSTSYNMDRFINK
Sequence of mouse 11-β-HSD-1 (P50172 whole entry): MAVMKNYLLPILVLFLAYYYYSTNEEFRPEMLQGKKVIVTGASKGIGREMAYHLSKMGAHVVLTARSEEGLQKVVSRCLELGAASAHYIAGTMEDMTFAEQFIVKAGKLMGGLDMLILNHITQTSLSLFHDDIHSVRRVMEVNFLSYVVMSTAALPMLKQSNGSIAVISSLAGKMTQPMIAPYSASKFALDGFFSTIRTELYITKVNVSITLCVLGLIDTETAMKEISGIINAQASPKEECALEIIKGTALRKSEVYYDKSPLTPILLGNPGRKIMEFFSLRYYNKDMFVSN
Sequence of rat 11-β-HSD-1 (P16232 whole entry): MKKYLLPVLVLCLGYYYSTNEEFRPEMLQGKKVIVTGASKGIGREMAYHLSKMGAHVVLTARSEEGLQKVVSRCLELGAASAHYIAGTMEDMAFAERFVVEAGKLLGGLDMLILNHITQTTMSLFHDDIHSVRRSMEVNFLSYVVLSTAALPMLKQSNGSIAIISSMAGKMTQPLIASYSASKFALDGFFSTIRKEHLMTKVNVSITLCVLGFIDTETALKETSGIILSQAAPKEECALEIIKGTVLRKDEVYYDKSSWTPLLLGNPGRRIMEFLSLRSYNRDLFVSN

Turning to `O=C(N1CCC2(c3c[nH]c4ncccc34)CC12)C1(c2ccc(Cl)cc2)CC1` (stereo not drawn) [Compound 2, 3-(2-{[1-(4-chlorophenyl)cyclopropyl]carbonyl}-2-azabicyclo[3.1.0]hex-5-yl)-1H-pyrrolo[2,3-b]pyridine], the half-maximal inhibitory concentration (IC50) in assay [1] was determined as 1290 nM; in assay [2], 22 nM; in assay [3] it was 1540 nM.
